Reference: publication PMC4786259 (PLoS ONE, 2016)
“Also recorded” adds a separate entry of the source.

Assays:
5-HT2A = target: T1, 5-HT2A (Homo sapiens, UniProt P28223); assay: PDSP radioligand competition binding; details: radioligand [^3H]Ketanserin; read-out: In Vitro Affinity
T1 construct: expressed in transfected cells

5-HT2C = target: T2, 5-HT2C (Homo sapiens, UniProt P28335); assay: PDSP radioligand competition binding; details: radioligand [^3H]Mesulergine; read-out: In Vitro Affinity
T2 construct: expressed in transfected cells
T2 sequence (P28335 33-458): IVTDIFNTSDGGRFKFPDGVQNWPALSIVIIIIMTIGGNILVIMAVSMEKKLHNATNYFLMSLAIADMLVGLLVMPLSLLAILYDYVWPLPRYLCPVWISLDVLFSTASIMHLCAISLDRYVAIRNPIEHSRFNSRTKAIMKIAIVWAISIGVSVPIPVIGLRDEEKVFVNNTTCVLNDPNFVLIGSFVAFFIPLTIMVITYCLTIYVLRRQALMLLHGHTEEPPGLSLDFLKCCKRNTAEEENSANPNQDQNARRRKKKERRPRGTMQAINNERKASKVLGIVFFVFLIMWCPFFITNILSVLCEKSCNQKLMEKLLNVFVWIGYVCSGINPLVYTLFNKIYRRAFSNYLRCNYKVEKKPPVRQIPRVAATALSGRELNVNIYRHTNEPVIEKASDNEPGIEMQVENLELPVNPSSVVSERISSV

5-HT6 [1] = target: T3, 5-HT6 (Homo sapiens, UniProt P50406); assay: PDSP radioligand competition binding; details: radioligand [^3H]LSD; read-out: In Vitro Affinity
T3 construct: expressed in transfected cells
T3 sequence (P50406 whole entry, species assumed): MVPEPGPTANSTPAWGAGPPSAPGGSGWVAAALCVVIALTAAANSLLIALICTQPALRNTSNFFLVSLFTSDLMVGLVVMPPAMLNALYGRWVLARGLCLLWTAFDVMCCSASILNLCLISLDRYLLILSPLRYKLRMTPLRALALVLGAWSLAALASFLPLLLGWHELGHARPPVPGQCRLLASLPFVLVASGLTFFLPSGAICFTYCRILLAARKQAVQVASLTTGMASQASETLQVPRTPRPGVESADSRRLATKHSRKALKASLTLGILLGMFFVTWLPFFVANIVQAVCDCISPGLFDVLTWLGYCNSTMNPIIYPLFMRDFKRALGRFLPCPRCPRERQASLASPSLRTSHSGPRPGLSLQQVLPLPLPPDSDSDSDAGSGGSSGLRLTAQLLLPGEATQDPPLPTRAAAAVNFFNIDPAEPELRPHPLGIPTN

D4 = target: T4, D4 (Homo sapiens, UniProt P21917); assay: PDSP radioligand competition binding; details: radioligand [^3H]N-methyl Spiperone; read-out: In Vitro Affinity
T4 construct: expressed in transfected cells
T4 sequence (P21917 1-419): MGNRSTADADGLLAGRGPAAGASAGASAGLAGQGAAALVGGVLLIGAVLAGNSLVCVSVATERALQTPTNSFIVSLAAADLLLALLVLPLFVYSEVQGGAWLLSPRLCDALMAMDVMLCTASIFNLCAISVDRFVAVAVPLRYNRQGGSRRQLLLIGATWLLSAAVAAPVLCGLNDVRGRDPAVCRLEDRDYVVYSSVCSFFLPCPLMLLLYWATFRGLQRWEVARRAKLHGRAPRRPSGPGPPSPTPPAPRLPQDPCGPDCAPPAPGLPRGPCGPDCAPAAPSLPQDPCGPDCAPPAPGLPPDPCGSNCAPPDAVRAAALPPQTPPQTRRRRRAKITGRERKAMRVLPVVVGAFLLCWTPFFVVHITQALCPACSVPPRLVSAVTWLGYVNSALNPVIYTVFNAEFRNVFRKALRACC

5-HT1D = 5-HT1D (Homo sapiens, UniProt P28221); assay: PDSP radioligand competition binding; details: radioligand [^3H]5-CT; read-out: In vitro Affinity
Chain of 5-HT1D (P28221 whole entry, species assumed): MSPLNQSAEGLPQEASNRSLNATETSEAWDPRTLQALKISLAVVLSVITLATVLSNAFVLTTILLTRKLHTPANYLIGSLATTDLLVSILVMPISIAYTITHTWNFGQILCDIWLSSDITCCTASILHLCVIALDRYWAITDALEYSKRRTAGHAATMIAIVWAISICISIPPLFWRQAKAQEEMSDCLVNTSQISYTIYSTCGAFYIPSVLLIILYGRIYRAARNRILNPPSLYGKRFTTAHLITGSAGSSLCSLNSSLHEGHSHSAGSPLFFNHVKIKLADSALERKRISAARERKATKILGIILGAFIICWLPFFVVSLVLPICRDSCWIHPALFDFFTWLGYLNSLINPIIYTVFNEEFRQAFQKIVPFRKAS

α1A = α1A (Homo sapiens, UniProt P35348); assay: PDSP radioligand competition binding; details: radioligand [^3H]Prazosin; read-out: In vitro Affinity
Chain of α1A (P35348 whole entry): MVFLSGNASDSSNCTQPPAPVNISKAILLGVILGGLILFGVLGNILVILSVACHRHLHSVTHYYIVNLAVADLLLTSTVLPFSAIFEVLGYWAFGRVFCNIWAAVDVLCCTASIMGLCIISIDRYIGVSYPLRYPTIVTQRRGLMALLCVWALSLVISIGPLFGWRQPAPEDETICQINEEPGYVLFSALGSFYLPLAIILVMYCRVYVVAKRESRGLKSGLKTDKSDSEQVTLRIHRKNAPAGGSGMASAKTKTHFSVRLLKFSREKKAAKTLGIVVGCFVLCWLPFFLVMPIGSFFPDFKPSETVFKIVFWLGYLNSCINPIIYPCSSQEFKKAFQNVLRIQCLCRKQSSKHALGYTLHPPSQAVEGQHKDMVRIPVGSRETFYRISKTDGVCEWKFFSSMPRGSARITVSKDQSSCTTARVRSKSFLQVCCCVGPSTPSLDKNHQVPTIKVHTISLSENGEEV

α1D = α1D (Homo sapiens, UniProt P25100); assay: PDSP radioligand competition binding; details: radioligand [^3H]Prazosin; read-out: In vitro Affinity
Chain of α1D (P25100 whole entry): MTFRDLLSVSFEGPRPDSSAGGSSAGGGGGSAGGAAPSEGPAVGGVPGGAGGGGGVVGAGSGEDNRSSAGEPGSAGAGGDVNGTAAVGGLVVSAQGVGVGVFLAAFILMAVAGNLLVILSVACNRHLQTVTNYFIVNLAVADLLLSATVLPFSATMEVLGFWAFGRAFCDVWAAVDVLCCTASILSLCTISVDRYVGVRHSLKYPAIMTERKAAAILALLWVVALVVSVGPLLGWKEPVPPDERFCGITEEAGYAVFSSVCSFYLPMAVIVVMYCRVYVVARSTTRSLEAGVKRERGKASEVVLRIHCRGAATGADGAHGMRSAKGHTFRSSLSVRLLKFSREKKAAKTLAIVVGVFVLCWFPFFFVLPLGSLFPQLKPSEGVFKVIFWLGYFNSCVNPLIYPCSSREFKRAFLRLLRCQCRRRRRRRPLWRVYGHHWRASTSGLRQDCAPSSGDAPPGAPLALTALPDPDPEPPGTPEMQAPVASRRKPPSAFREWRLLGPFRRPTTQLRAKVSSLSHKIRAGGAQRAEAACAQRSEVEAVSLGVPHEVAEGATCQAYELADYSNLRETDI

β3-AR = β3-AR (Homo sapiens, UniProt P13945); assay: PDSP radioligand competition binding; details: radioligand [^3H]CGP12177; read-out: In vitro Affinity
Chain of β3-AR (P13945 whole entry): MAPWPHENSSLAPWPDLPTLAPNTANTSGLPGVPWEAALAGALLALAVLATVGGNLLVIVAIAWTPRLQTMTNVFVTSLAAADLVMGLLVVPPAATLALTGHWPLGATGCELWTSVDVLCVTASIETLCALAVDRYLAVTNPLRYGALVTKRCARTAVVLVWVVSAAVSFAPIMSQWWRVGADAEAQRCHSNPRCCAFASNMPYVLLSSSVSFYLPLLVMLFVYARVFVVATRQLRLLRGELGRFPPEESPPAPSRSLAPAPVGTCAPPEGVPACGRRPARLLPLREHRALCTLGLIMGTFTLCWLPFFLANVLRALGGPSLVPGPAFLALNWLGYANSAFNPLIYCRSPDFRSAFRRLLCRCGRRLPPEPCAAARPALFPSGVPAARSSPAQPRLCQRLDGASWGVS

DOR = DOR (Homo sapiens, UniProt P41143); assay: PDSP radioligand competition binding; details: radioligand [^3H]DADLE; read-out: In vitro Affinity
Chain of DOR (P41143 whole entry): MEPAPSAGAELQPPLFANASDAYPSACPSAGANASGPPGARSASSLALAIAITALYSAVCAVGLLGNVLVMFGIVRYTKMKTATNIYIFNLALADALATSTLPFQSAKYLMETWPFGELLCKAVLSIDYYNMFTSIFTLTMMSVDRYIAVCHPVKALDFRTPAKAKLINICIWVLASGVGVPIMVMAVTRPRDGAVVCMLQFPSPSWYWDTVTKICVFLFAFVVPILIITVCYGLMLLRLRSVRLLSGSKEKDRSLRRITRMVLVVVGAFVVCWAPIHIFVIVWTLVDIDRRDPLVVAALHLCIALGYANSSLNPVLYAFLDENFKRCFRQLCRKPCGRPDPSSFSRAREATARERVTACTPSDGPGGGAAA

H2 = H2 (Homo sapiens, UniProt P25021); assay: PDSP radioligand competition binding; details: radioligand [^3H]Cimetidine; read-out: In vitro Affinity
Chain of H2 (P25021 whole entry): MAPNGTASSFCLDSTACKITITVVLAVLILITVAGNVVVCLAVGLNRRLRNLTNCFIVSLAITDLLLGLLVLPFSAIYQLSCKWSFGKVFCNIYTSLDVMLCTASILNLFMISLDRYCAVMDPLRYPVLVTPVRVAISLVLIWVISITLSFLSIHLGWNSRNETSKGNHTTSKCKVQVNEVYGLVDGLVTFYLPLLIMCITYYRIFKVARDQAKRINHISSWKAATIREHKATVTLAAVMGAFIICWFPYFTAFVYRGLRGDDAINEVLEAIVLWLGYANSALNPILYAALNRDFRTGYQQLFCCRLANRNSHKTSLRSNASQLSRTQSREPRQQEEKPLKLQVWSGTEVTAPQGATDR

MOR = MOR (Homo sapiens, UniProt P35372); assay: PDSP radioligand competition binding; details: radioligand [^3H]DAMGO; read-out: In vitro Affinity
Chain of MOR (P35372 whole entry): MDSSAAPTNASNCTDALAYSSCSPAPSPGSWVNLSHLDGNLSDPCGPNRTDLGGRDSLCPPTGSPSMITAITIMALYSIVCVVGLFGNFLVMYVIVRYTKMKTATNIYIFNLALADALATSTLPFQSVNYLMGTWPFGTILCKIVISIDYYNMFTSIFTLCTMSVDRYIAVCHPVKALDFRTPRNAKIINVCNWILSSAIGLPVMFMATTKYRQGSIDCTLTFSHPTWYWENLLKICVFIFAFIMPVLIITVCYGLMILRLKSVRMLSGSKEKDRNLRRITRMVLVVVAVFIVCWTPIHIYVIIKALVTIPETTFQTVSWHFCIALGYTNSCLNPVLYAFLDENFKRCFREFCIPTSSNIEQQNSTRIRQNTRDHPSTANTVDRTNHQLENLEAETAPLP

V1A = V1A (Homo sapiens, UniProt P37288); assay: PDSP radioligand competition binding; details: radioligand [^3H]Vasopressin; read-out: In vitro Affinity
Chain of V1A (P37288 whole entry): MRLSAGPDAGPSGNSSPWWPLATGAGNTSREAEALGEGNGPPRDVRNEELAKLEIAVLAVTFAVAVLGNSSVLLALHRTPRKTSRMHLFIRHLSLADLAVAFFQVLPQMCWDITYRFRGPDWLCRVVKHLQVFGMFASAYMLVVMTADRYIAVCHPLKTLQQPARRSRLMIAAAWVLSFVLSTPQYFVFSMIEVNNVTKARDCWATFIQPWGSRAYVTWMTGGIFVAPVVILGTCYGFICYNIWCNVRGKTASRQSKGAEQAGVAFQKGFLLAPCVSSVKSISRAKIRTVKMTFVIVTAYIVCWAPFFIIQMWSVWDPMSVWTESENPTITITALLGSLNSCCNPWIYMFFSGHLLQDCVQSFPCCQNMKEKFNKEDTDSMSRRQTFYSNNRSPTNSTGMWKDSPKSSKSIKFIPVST

5-HT6 [2] = target: T3, 5-HT6; assay: PDSP receptor functional assay; type: cell-based
[3] = Dynamic light scattering to test for colloidal aggregation; type: physicochemical
Procedure: Measurements were made at room temperature using a DynaPro MS/X (Wyatt Technology) with a 55 mW laser at 826.6 nm. The laser power was 100%, and the detector angle was 90° with samples run in duplicate.

male C57BL/6J mice = assay: DOI-induced head-twitch response; type: in vivo
male B6129 hybrid mice = assay: Clozapine drug discrimination (substitution); type: in vivo
Procedure: Adult male B6129 hybrid mice (n = 12) were trained to respond under a FR10 schedule and were reinforced by presentation of sweetened milk as described previously. The drug and vehicle lever positions were counterbalanced between groups to control for olfactory cues. All injections were given subcutaneously with a pre-session injection time of 30 minutes. Training occurred on a double alternation injection schedule with two days of VEH followed by two days of CLZ and repeated (VEH, VEH, CLZ, CLZ, VEH, VEH etc.). In order for a mouse to pass a training day it had to meet three criteria: (1) complete the first fixed ratio (FR) on the condition-appropriate lever, (2) at least 80% of the total responses were made on the condition-appropriate lever, and (3) at least 10 responses per minute were made during the session. Drug testing was conducted approximately two times per week with at least two training days in between. To be eligible for testing, mice were required to pass both a drug and vehicle training day consecutively. […] Responses on both levers were reinforced.
A p<0.05 was considered significant.

hDAT = hDAT (Homo sapiens, UniProt Q01959); assay: Whole cell 3H-dopamine uptake in HEK-DAT cells
Chain of hDAT (Q01959 whole entry): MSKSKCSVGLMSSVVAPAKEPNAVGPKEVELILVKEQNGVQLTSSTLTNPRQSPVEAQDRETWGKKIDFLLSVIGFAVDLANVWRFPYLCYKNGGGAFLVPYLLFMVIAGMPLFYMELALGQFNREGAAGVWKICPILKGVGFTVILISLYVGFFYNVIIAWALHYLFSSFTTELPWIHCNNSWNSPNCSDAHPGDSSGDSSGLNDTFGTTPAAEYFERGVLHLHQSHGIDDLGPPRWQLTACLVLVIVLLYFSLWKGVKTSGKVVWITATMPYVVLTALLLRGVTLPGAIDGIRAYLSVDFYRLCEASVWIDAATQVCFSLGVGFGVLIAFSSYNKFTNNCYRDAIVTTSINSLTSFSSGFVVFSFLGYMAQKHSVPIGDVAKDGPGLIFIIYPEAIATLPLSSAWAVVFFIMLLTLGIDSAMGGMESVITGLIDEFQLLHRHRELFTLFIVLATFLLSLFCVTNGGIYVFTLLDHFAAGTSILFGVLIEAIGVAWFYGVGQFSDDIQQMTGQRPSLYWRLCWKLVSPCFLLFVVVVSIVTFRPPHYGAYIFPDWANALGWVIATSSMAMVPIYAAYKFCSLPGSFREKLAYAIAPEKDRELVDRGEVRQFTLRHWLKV
Procedure: Cell culture: HEK293 cells (ATCC) lines stably expressing hDAT or hDAT and hVMAT2 constructs were cultured at 37°C and 5% CO2 in DMEM with 10% FBS.
Whole cell ^3H-dopamine (DA) uptake: Cells were plated into 48-well plates one day before uptake was performed. […] After incubation, 25 μl uptake buffer containing ^3H-DA and DA was added for a final concentration of 20 nM ^3H-DA and 1 μM DA. Cells were incubated at 37°C for 20 minutes or for the time indicated. Nonspecific uptake was determined in the presence of 10 μM nomifensine. Uptake was terminated by aspirating uptake buffer and washing each well twice with 0.5 ml ice-cold uptake buffer. Cells were lysed in 0.1 N NaOH and transferred to vials containing 3 ml scintillation cocktail. Radioactivity was quantitated using a Beckman LS6500 counter. Data were analyzed in Graph Pad Prism 5.0.

AmpC β-lactamase = AmpC β-lactamase (Escherichia coli, UniProt P00811); assay: AmpC β-lactamase assay counterscreen for colloidal aggregation; details: <= 10 μM; data not shown
Chain of AmpC β-lactamase (P00811 20-377): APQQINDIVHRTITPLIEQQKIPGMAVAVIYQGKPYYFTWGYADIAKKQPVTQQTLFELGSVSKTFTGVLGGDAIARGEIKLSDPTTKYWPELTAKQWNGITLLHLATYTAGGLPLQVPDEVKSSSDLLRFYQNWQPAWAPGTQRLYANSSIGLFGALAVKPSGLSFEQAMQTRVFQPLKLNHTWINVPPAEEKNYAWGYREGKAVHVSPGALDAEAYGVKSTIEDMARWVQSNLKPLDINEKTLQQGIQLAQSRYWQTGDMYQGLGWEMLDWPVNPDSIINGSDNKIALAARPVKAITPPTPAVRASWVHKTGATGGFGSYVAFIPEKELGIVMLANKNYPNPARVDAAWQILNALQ

Work on COc1cc2c3c(c1OC)-c1ccccc1C[C@H]3N(C)CC2 [nuciferine] yielded a Ki (5-HT2A) of 312 nM, a Ki (5-HT2C) of 60.5 nM and a Ki (5-HT6 [1]) of 268 nM. For the same molecule, the Ki (D4) was 1390 nM, the Ki (5-HT1D) was 518 nM and the Ki (α1A) was 1390 nM. For the same molecule, the Ki (α1D) was 818 nM, the Ki (β3-AR) was 1100 nM and the Ki (DOR) was 10000 nM. The Ki (H2) was 1660 nM, the Ki (MOR) was 9550 nM and the Ki (V1A) was 10000 nM. For the same molecule, the EC50 (5-HT6 [2]) was 700 nM, the “Function Type” value (5-HT6 [2]) was “Partial agonist” and the Emax (5-HT6 [2]; read-out: maximal effect) was 17.3%. The “light scattering above background” value ([3]; <= 10 μM, aqueous buffer) was “did not scatter light above background”, the colloidal aggregate formation ([3]; concentrations up to 10 μM) was “does not form aggregates” and the DOI-induced head-twitches (male C57BL/6J mice; 1 mg/kg i.p., 15 min prior to 1.0 mg/kg DOI) was “no statistical effect”. For the same molecule, the DOI-induced head-twitches (male C57BL/6J mice; 3 mg/kg i.p., 15 min prior to 1.0 mg/kg DOI, at 5, 10, 15 and 20 min) was “decreased head-twitches; also recorded: statistically significant (p<0.05) reductions in the numbers of head-twitches”, the DOI-induced head-twitches (male C57BL/6J mice; 3 mg/kg i.p., 30 min prior to DOI) was “statistically significant (p<0.05) reductions in the numbers of head-twitches” and the DOI-induced head-twitches (male C57BL/6J mice; 3 mg/kg i.p., 45 min prior to DOI) was “failed to show significant alterations in head-twitches”. For the same molecule, the DOI-induced head-twitches (male C57BL/6J mice; 3 mg/kg i.p., 60 min prior to DOI) was “failed to show significant alterations in head-twitches”, the DOI-induced head-twitches (male C57BL/6J mice; 3 mg/kg s.c., 15 min prior to 1.0 mg/kg DOI, at 10, 15 and 20 min) was “attenuated DOI-induced head-twitches” and the DOI-induced head-twitches (male C57BL/6J mice; 10 mg/kg i.p., 15 min prior to 1.0 mg/kg DOI, at 5, 10, 15 and 20 min) was “decreased head-twitches”. For the same molecule, the drug lever responding (male B6129 hybrid mice; 10.0 mg/kg s.c., animals trained on 1.25 mg/kg clozapine) was 80.63%, the ED50 (male B6129 hybrid mice; Mus musculus, sc, 95% CI 3.09–9.48 mg/kg) was 5.42 mg/kg and the “substitution for clozapine's discriminative cue” value (male B6129 hybrid mice; lower doses 0.1 mg/kg–3.0 mg/kg) was “failed to produce substitution”. For the same molecule, the EC50 (hDAT) was 1.8 nM and the “inhibition of AmpC β-lactamase” value (AmpC β-lactamase) was “did not inhibit”.
